From ChEMBL document CHEMBL4680309, “Discovery of a potent β-catenin destabilizer for overcoming the resistance of 5-fluorouracil in colorectal cancer” (Bioorg Med Chem, 2021)
Calls of active or inactive are those of the source. The rule behind the calls is not given here.

Experiments:
HCT-8 [1] = assay: Cytotoxicity against human HCT-8 cells assessed as reduction in cell viability at 100 uM incubated for 72 hrs by SRB assay; assay type: functional, cell-based
HCT-8 [2] = assay: Cytotoxicity against human HCT-8 cells assessed as reduction in cell viability incubated for 72 hrs by SRB assay; conditions: HCT-8, 72 h
HCT-116 [3] = assay: Cytotoxicity against human HCT-116 cells assessed as reduction in cell viability incubated for 72 hrs by SRB assay; conditions: HCT-116, 72 h
SW480 = assay: Cytotoxicity against human SW480 cells assessed as reduction in cell viability incubated for 72 hrs by SRB assay; conditions: SW480, 72 h
[4] = Cytotoxicity against human RKOE6 cells assessed as reduction in cell viability incubated for 72 hrs by SRB assay; conditions: RKOE6, 72 h
HT-29 = assay: Cytotoxicity against human HT-29 cells assessed as reduction in cell viability incubated for 72 hrs by SRB assay; conditions: HT-29, 72 h
LoVo = assay: Cytotoxicity against human LoVo cells assessed as reduction in cell viability incubated for 72 hrs by SRB assay
HCT-8 [5] = assay: Cytotoxicity against 5-FU resistant human HCT-8 cells assessed as reduction in cell viability incubated for 72 hrs by SRB assay; assay type: functional, cell-based; conditions: HCT-8, 72 h
[6] = Resistance index, ratio of IC50 for cytotoxicity against 5-FU resistant human HCT-8 cells to IC50 for cytotoxicity against human HCT-8 cells; assay type: functional
HCT-116 [7] = assay: Cytotoxicity against human HCT-116 cells harboring p53 knock out gene assessed as reduction in cell viability incubated for 72 hrs by SRB assay; assay type: functional, cell-based; conditions: HCT-116, 72 h
[8] = Resistance index, ratio of IC50 for cytotoxicity against human HCT-116 cells harboring p53 knock out gene to IC50 for cytotoxicity against human HCT-116 cells; assay type: functional
HCT-8 [9] = assay: Inhibition of Wnt/beta-Catenin signaling in human HCT-8 cells assessed as reduction in beta-catenin level incubated for 24 hrs by Western blot analysis; assay type: cell-based; conditions: dose 20-100 µM
HCT-8 [10] = assay: Inhibition of Wnt/beta-Catenin signaling in 5-FU resistant human HCT-8 cells assessed as reduction in beta-catenin level incubated for 24 hrs by Western blot analysis; assay type: cell-based; conditions: dose 20-100 µM
HCT-8 [11] = assay: Inhibition of Wnt/beta-Catenin signaling in human HCT-8 cells assessed as reduction in c-myc expression incubated for 24 hrs by Western blot analysis; assay type: cell-based; conditions: dose 20-100 µM
HCT-8 [12] = assay: Inhibition of Wnt/beta-Catenin signaling in human HCT-8 cells assessed as reduction in survivin expression incubated for 24 hrs by Western blot analysis; assay type: cell-based; conditions: dose 20-100 µM
HCT-8 [13] = assay: Inhibition of Wnt/beta-Catenin signaling in human HCT-8 cells assessed as reduction in cyclin D1 expression incubated for 24 hrs by Western blot analysis; assay type: cell-based; conditions: dose 20-100 µM
HCT-8 [14] = assay: Inhibition of Wnt/beta-Catenin signaling in 5-FU resistant human HCT-8 cells assessed as reduction in c-myc expression incubated for 24 hrs by Western blot analysis; assay type: cell-based; conditions: dose 20-100 µM
HCT-8 [15] = assay: Inhibition of Wnt/beta-Catenin signaling in 5-FU resistant human HCT-8 cells assessed as reduction in survivin expression incubated for 24 hrs by Western blot analysis; assay type: cell-based; conditions: dose 20-100 µM
HCT-8 [16] = assay: Inhibition of Wnt/beta-Catenin signaling in 5-FU resistant human HCT-8 cells assessed as reduction in cyclin D1 expression incubated for 24 hrs by Western blot analysis; assay type: cell-based; conditions: dose 20-100 µM
HCT-8 [17] = assay: Effect on beta-Catenin mRNA expression in 5-FU resistant human HCT-8 cells at 50 to 100 uM incubated for 24 hrs by qRT-PCR analysis; assay type: functional, cell-based; conditions: dose 50-100 µM
HCT-8 [18] = assay: Effect on beta-Catenin mRNA expression in human HCT-8 cells at 50 uM incubated for 24 hrs by qRT-PCR analysis; assay type: functional, cell-based
HCT-8 [19] = assay: Effect on beta-Catenin mRNA expression in human HCT-8 cells at 100 uM incubated for 24 hrs by qRT-PCR analysis; assay type: functional, cell-based
[20] = target: T1, Catenin beta-1 (Homo sapiens) (UniProt P35222); assay: Degradation of beta-Catenin in human HCT-8 cells assessed as reduction in Wnt-3a-induced beta-Catenin level at 50 to 100 uM incubated for 24 hrs by Western blot analysis; assay type: cell-based; conditions: dose 50-100 µM
T1 sequence (whole entry): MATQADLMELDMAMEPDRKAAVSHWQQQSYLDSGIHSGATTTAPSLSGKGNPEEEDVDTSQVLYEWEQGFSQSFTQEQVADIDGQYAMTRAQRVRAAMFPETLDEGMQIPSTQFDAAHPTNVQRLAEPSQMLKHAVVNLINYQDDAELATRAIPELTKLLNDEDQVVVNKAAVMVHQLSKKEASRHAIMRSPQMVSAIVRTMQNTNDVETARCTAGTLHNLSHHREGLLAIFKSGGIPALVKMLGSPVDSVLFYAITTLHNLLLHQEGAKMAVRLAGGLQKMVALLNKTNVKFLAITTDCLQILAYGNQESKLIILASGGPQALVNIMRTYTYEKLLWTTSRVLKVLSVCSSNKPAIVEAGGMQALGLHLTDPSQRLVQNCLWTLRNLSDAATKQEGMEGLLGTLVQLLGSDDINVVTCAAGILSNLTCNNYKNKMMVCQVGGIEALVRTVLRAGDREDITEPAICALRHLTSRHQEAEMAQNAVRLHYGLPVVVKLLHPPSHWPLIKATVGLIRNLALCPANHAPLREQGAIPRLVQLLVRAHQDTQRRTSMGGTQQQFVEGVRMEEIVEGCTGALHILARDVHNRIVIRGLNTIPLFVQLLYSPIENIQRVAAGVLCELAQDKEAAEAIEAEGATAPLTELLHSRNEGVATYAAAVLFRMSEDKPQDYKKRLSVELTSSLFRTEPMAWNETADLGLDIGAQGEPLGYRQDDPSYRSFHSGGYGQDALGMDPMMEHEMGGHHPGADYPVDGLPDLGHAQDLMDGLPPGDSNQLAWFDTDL

[21] = target: T1, Catenin beta-1 (Homo sapiens); assay: Degradation of beta-catenin (unknown origin) transfected in human HCT-8 cells assessed as reduction in cell viability at 50 uM incubated for 24 hrs by SRB assay; assay type: cell-based
[22] = target: T1, Catenin beta-1 (Homo sapiens); assay: Degradation of beta-catenin (unknown origin) transfected in 5-FU resistant human HCT-8 cells assessed as reduction in cell viability at 50 uM incubated for 24 hrs by SRB assay; assay type: cell-based
[23] = target: T1, Catenin beta-1 (Homo sapiens); assay: Degradation of beta-catenin (unknown origin) transfected in human HCT-8 cells assessed as reduction in c-myc mRNA expression at 50 uM incubated for 24 hrs by qRT-PCR analysis; assay type: cell-based
[24] = target: T1, Catenin beta-1 (Homo sapiens); assay: Degradation of beta-catenin (unknown origin) transfected in human HCT-8 cells assessed as reduction in survivin mRNA expression at 50 uM incubated for 24 hrs by qRT-PCR analysis; assay type: cell-based
[25] = target: T1, Catenin beta-1 (Homo sapiens); assay: Degradation of beta-catenin (unknown origin) transfected in human HCT-8 cells assessed as reduction in cyclin D1 mRNA expression at 50 uM incubated for 24 hrs by qRT-PCR analysis; assay type: cell-based
[26] = target: T1, Catenin beta-1 (Homo sapiens); assay: Degradation of beta-catenin (unknown origin) transfected in 5-FU resistant human HCT-8 cells assessed as reduction in c-myc mRNA expression at 50 uM incubated for 24 hrs by qRT-PCR analysis; assay type: cell-based
[27] = target: T1, Catenin beta-1 (Homo sapiens); assay: Degradation of beta-catenin (unknown origin) transfected in 5-FU resistant human HCT-8 cells assessed as reduction in survivin mRNA expression at 50 uM incubated for 24 hrs by qRT-PCR analysis; assay type: cell-based
[28] = target: T1, Catenin beta-1 (Homo sapiens); assay: Degradation of beta-catenin (unknown origin) transfected in 5-FU resistant human HCT-8 cells assessed as reduction in cyclin D1 mRNA expression at 50 uM incubated for 24 hrs by qRT-PCR analysis; assay type: cell-based

For C=C1C(=O)O[C@@H]2CCCn3cccc3[C@@H]12, which inhibition (HCT-8 [1]) is on record?
The inhibition was “inactive”.

What about the IC50 (HCT-8 [2]) of the same compound?
The IC50 was 11 µM.

What about the IC50 (HCT-116 [3]) of the same compound?
Its IC50 is 13 µM.

And the IC50 (SW480)?
The IC50 was 16.8 µM.

And the IC50 [4]?
The IC50 was 7.93 µM.

And the IC50 (HT-29)?
The IC50 was 8.52 µM.

And the IC50 (LoVo)?
Its IC50 is 10.2 µM.

What about the IC50 (HCT-8 [5]) of the same compound?
Its IC50 is 11 µM.

And the “Ratio IC50” value [6]?
The value was 1.

What about the IC50 (HCT-116 [7]) of the same compound?
Its IC50 is 14 µM.

And the “Ratio IC50” value [8]?
Its value is 1.

And the inhibition (HCT-8 [9])?
Its inhibition is “Dose-dependent effect”.

What about the inhibition (HCT-8 [10]) of the same compound?
The inhibition was “Dose-dependent effect”.

What about the inhibition (HCT-8 [11]) of the same compound?
Its inhibition is “Dose-dependent effect”.

And the inhibition (HCT-8 [12])?
Its inhibition is “Dose-dependent effect”.

What about the inhibition (HCT-8 [13]) of the same compound?
Its inhibition is “Dose-dependent effect”.

And the inhibition (HCT-8 [14])?
Its inhibition is “Dose-dependent effect”.

What about the inhibition (HCT-8 [15]) of the same compound?
The inhibition was “Dose-dependent effect”.

And the inhibition (HCT-8 [16])?
Its inhibition is “Dose-dependent effect”.

What about the Activity (HCT-8 [17]) of the same compound?
Its Activity is “inactive”.

What about the Activity (HCT-8 [18]) of the same compound?
The Activity was “Active”.

What about the Activity (HCT-8 [19]) of the same compound?
The Activity was “inactive”.

What about the Activity [20] of the same compound?
The Activity was “Active”.

And the Activity [21]?
Its Activity is “inactive”.

And the Activity [22]?
The Activity was “inactive”.

And the Activity [23]?
Its Activity is “inactive”.

And the Activity [24]?
Its Activity is “inactive”.

And the Activity [25]?
Its Activity is “inactive”.

And the Activity [26]?
The Activity was “inactive”.

And the Activity [27]?
The Activity was “inactive”.

And the Activity [28]?
Its Activity is “inactive”.

Which inhibition (HCT-8 [1]) does the source give for CC[C@@H]1C(=O)O[C@@H]2CCCn3cccc3[C@@H]12 here?
Its inhibition is “inactive”.

For O=c1[nH]cc(F)c(=O)[nH]1 [FLUOROURACIL], which IC50 (HCT-8 [2]) is on record?
The IC50 was 2.2 µM.

And the IC50 (HCT-116 [3])?
Its IC50 is 1.7 µM.

And the IC50 (HCT-8 [5])?
Its IC50 is 47 µM.

What about the “Ratio IC50” value [6] of the same compound?
The value was 21.

And the IC50 (HCT-116 [7])?
Its IC50 is 4.3 µM.

What about the “Ratio IC50” value [8] of the same compound?
The value was 2.5.

For CC[C@H]1C(=O)O[C@@H]2CCCn3cccc3[C@H]21, which inhibition (HCT-8 [1]) is on record?
Its inhibition is “inactive”.

With CCCCc1ccc2n1CCC[C@H]1OC(=O)[C@@H](C)[C@H]21 as the compound, how does the inhibition (HCT-8 [1]) read?
The inhibition was “inactive”.

With C=C1C(=O)O[C@@H]2CCCn3c(C=O)ccc3[C@@H]12 as the compound, how does the inhibition (HCT-8 [1]) read?
Its inhibition is “inactive”.
